According to patent publication EP2488529B1, “Spirocyclic derivatives as histone deacetylase inhibitors” (DAC S.r.l., priority 2009, dated 2011):
pIC50: −log10 of the molar value. Read-outs that look alike come from different tables or passages of the source.

Columns and labels:
HDAC = assay: Assay of enzyme inhibition of HDAC (BIOMOL kit, fluorescence); type: biochemical; details: nuclear fraction of Hela cells; substrate 200 µM; 15 min at RT
Method: The in-vitro activity of HDAC inhibitors was assayed using a BIOMOL Kit, according to the instructions from the manufacturer (Biomolecular Research Laborator). 15 µl of 30 x diluted nuclear fraction of Hela cells, was diluted to 50 µl with the assay buffer containing the HDAC inhibitor and the substrate (lysine with acetylated amino group on the side chain) at a concentration of 200 µM. The samples were incubated for 15 min at RT and then exposed to a developer (10 min at RT). In this last step a fluorophore was produced, whose fluorescence was measured using an excitation wavelength of 355 nm and an emission at 460 nm. The IC50 was calculated using GraphPad Software.

A549 = assay: Cell growth, CellTiter-Glo Luminescent Cell Viability Assay (antiproliferative assay); type: cell-based; details: A549 cells, incubated for 72 h
Text: (§1) CellTiter-Glo® Luminescent Cell Viability Assay (Promega) is a homogeneous method of determining the number of viable cells in culture based on quantitation of the present ATP, which indicates the presence of metabolically active cells. The homogeneous assay procedure involves addition of a single reagent (CellTiter-Glo® Reagent) directly to the cells, which leads to cell lysis and generation of a luminescent signal proportional to the amount of the ATP and the number of cells present in culture. The assay relies on the properties of a proprietary thermostable luciferase (Ultra-Glo® recombinant luciferase), which generates a luminescent signal. K562, A549, and HCT-116 cells, in exponential growth, were incubated for 72 h with different concentrations of the inhibitors. After 72 h, a volume of CellTiter-Glo® Reagent equal to the volume of cell culture medium was added. The content was mixed for 2 min to induce cell lysis. The luminescence was recorded after further 10 min at RT in order to obtain a stable luminescent signal.
(§2) The IC50 was calculated using GraphPad Software.

HCT-116 = assay: as above; type: cell-based; details: HCT-116 cells, incubated for 72 h, read-out: HCT116 IC50
Text: as §1, §2

K562 = assay: as above; type: cell-based; details: K562 cells, incubated for 72 h
Text: as §1, §2

| Compound | pIC50 (HDAC) | pIC50 (A549; Homo sapiens) | pIC50 (HCT-116; Homo sapiens) | pIC50 (K562; Homo sapiens) | pIC50 (A549) | pIC50 (HCT-116) | pIC50 (K562) |
| --- | --- | --- | --- | --- | --- | --- | --- |
| O=C(/C=C/c1ccc2c(c1)C(=O)NC1(CCCNC1)O2)NO (racemic) [Example 39, (±)-(E)-3-{3,4-Dihydro-4-oxo-spiro[2H-(1,3)-benzoxazine-2,3'-piperidin]-6-yl}-N-hydroxy-acrylamide] | 6.00 to 7.00 | ≤ 5.52 | 5.52 to 6.00 | 5.52 to 6.00 |  |  |  |
| CN1CCCC2(C1)NC(=O)c1cc(/C=C/C(=O)NO)ccc1O2 (racemic) [Example 41, (±)-(E)-3-{1'-Methyl-3,4-dihydro-4-oxo-spiro[2H-(1,3)-benzoxazine-2,3'-piperidin]-6-yl}-N-hydroxy-acrylamide] | 6.00 to 7.00 | 5.52 to 6.00 | ≥ 6.00 | ≥ 6.00 |  |  |  |
| O=C(/C=C/c1ccc2c(c1)C(=O)NC1(CCCN(Cc3ccc(F)cc3)C1)O2)NO (racemic) [Example 42, (±)-(E)-3-{1'-(4-Fluoro-benzyl)-3,4-dihydro-4-oxo-spiro[2H-(1,3)-benzoxazine-2,3'-piperidin]-6-yl}-N-hydroxy-acrylamide] | 6.00 to 7.00 | 5.52 to 6.00 | ≥ 6.00 | ≥ 6.00 |  |  |  |
| Cn1cc(CN2CCCC3(CC(=O)c4cc(/C=C/C(=O)NO)ccc4O3)C2)c2ccccc21 (racemic) [Example 45, (±)-(E)-3-[1'-(1-Methyl-1H-indol-3-ylmethyl)-4-oxo-spiro(chromane-2,3'-piperidine)-6-yl]-N-hydroxy-acrylamide] | 6.00 to 7.00 | ≥ 6.00 | ≥ 6.00 | ≥ 6.00 |  |  |  |
| Cn1cc(CN2CCCC3(C2)NC(=O)c2cc(/C=C/C(=O)NO)ccc2O3)c2ccccc21 (racemic) [Example 46, (±)-(E)-3-{1'-(1-Methyl-1H-indol-3-ylmethyl)-4-oxo-spiro[2H-(1,3)-benzoxazine-2,3'-piperidin]-6-yl}-N-hydroxy-acrylamide] | 6.00 to 7.00 | ≥ 6.00 | ≥ 6.00 | ≥ 6.00 |  |  |  |
| CC(C)N1CCCC2(CC(=O)c3cc(/C=C/C(=O)NO)ccc3O2)C1 (racemic) [Example 49, (±)-(E)-3-[1'-Isopropyl-4-oxo-spiro(chromane-2,3'-piperidine)-6-yl]-N-hydroxy-acrylamide] | 6.00 to 7.00 | ≥ 6.00 | ≥ 6.00 | ≥ 6.00 |  |  |  |
| O=C(/C=C/c1ccc2c(c1)C(=O)CC1(CCCN(Cc3ccccc3)C1)O2)NO (single isomer, unassigned; (+)) [Example 18, (+)-(E)-3-[1'-Benzyl-4-oxo-spiro(chrormane-2,3'-piperidine)-6-yl]-N-hydroxy-acrylamide] | 6.00 to 7.00 | 5.52 to 6.00 | ≥ 6.00 | ≥ 6.00 |  |  |  |
| O=C(/C=C/c1ccc2c(c1)C(=O)CC1(CNC1)O2)NO [Example 30, (E)-3-[4-Oxo-spiro(chromane-2,3'-azetidine)-6-yl]-N-hydroxy-acrylamide] | 6.00 to 7.00 | ≤ 5.52 | ≤ 5.52 | 5.52 to 6.00 |  |  |  |
| O=C(/C=C/c1ccc2c(c1)C(=O)CC1(CN(CCc3ccccc3)C1)O2)NO [Example 32, (E)-3-[1'-(2-Phenyl-ethyl)-4-oxo-spiro(chromane-2,3'-azetidine)-6-yl]-N-hydroxy-acrylamide] | 6.00 to 7.00 | ≥ 6.00 | ≥ 6.00 | ≥ 6.00 |  |  |  |
| O=C(/C=C/c1ccc2c(c1)C(=O)CC1(CN(Cc3ccc(F)cc3)C1)O2)NO [Example 33, (E)-3-[1'-(4-Fluoro-benzyl)-4-oxo-spiro(chromane-2,3'-azetidine)-6-yl]-N-hydroxy-acrylamide] | 6.00 to 7.00 | ≥ 6.00 | ≥ 6.00 | ≥ 6.00 |  |  |  |
| CN1CC2(CC(=O)c3cc(/C=C/C(=O)NO)ccc3O2)C1 [Example 34, (E)-3-[1'-Methyl-4-oxo-spiro(chromane-2,3'-azetidine)-6-yl]-N-hydroxy-acrylamide] | 6.00 to 7.00 | ≥ 6.00 | ≥ 6.00 | ≥ 6.00 |  |  |  |
| O=C(/C=C/c1ccc2c(c1)C(=O)CC1(CN(CCc3ccc(F)cc3)C1)O2)NO [Example 35, (E)-3-{1'-[2-(4-Fluoro-phenyl)-ethyl]-4-oxo-spiro(chromane-2,3'-azetidine)-6-yl}-N-hydroxy-acrylamide] | 6.00 to 7.00 | 5.52 to 6.00 | ≥ 6.00 | ≥ 6.00 |  |  |  |
| CC(=O)N1CC2(CC(=O)c3cc(/C=C/C(=O)NO)ccc3O2)C1 [Example 36, (E)-3-[1'-Acetyl-4-oxo-spiro(chromane-2,3'-azetidine)-6-yl]-N-hydroxy-acrylamide] | 6.00 to 7.00 | ≤ 5.52 | ≤ 5.52 | ≤ 5.52 |  |  |  |
| CCOC(=O)N1CC2(CC(=O)c3cc(/C=C/C(=O)NO)ccc3O2)C1 [Example 38, (E)-3-[1'-Ethyloxycarbonyl-4-oxo-spiro(chromane-2,3'-azetidine)-6-yl]-N-hydroxy-acrylamide] | 6.00 to 7.00 | ≤ 5.52 | 5.52 to 6.00 | 5.52 to 6.00 |  |  |  |

The remaining lines, values ahead:

| pIC50 (HDAC) | pIC50 (A549; Homo sapiens) | pIC50 (HCT-116; Homo sapiens) | pIC50 (K562; Homo sapiens) | pIC50 (A549) | pIC50 (HCT-116) | pIC50 (K562) | Compound |
| --- | --- | --- | --- | --- | --- | --- | --- |
| 6.00 to 7.00 | ≥ 6.00 | ≥ 6.00 | ≥ 6.00 |  |  |  | O=C(/C=C/c1ccc2c(c1)C(=O)CC1(CCCN(Cc3ccc(F)cc3)CC1)O2)NO (racemic) [Example 29, (±)-(E)-3-[1'-(4-Fluoro-benzyl)-4-oxo-spiro(chromane-2,4'-azepane)-6-yl]-N-hydroxy-acrylamide] |
| ≥ 7.00 | ≥ 6.00 | ≥ 6.00 | ≥ 6.00 |  |  |  | O=C(/C=C/c1ccc2c(c1)C(=O)NC1(CCCN(Cc3ccccc3)C1)O2)NO (racemic) [Example 40, (±)-(E)-3-{1'-Benzyl-3,4-dihydro-4-oxo-spiro[2H-(1,3)-benzoxazine-2,3'-piperidin]-6-yl}-N-hydroxy-acrylamide] |
| ≥ 7.00 | ≥ 6.00 | ≥ 6.00 | ≥ 6.00 |  |  |  | O=C(/C=C/c1ccc2c(c1)C(=O)NC1(CCCN(CCc3ccccc3)C1)O2)NO (racemic) [Example 43, (±)-(E)-3-{1'-(2-Phenyl-ethyl)-3,4-dihydro-4-oxo-spiro[2H-(1,3)-benzoxazine-2,3'-piperidin]-6-yl}-N-hydroxy-acrylamide] |
| ≥ 7.00 | ≥ 6.00 | ≥ 6.00 | ≥ 6.00 |  |  |  | O=C(/C=C/c1ccc2c(c1)C(=O)CC1(CCCN(C3CCCC3)C1)O2)NO (racemic) [Example 50, (±)-(E)-3-[1'-Cyclopentyl-4-oxo-spiro(chromane-2,3'-piperidine)-6-yl]-N-hydroxy-acrylamide] |
| ≥ 7.00 |  |  |  | ≥ 6.00 | ≥ 6.00 | ≥ 6.00 | O=C(/C=C/c1ccc2c(c1)C(=O)CC1(CCN(Cc3ccccc3)C1)O2)NO (single isomer, unassigned; (+)) [Example 4, (+)-(E)-3-[1'-Benzyl-4-oxo-spiro(chromane-2,3'-pyrrolidine)-6-yl]-N-hydroxy-acrylamide] |
| ≥ 7.00 | ≥ 6.00 | ≥ 6.00 | ≥ 6.00 |  |  |  | O=C(/C=C/c1ccc2c(c1)C(=O)CC1(CCN(Cc3ccccc3)C1)O2)NO (single isomer, unassigned; (-)) [Example 3, (-)-(E)-3-[1 '-Benzyl-4-oxo-spiro(chromane-2,3'-pyrrolidine)-6-yl]-N-hydroxy-acrylamide] |
| ≥ 7.00 | 5.52 to 6.00 | ≥ 6.00 | ≥ 6.00 |  |  |  | O=C(/C=C/c1ccc2c(c1)C(=O)CC1(CCCN(Cc3ccccc3)C1)O2)NO (single isomer, unassigned; (-)) [Example 17, (-)-(E)-3-[1'-Benzyl-4-oxo-spiro(chromane-2,3'-piperidine)-6-yl]-N-hydroxy-acrylamide] |
| ≥ 7.00 | ≥ 6.00 | ≥ 6.00 | ≥ 6.00 |  |  |  | O=C(/C=C/c1ccc2c(c1)C(=O)CC1(CN(Cc3ccccc3)C1)O2)NO [Example 31, (E)-3-[1'-Benzyl-4-oxo-spiro(chromane-2,3'-azetidine)-6-yl]-N-hydroxy-acrylamide] |
| ≥ 7.00 | 5.52 to 6.00 | ≥ 6.00 | ≥ 6.00 |  |  |  | O=C(/C=C/c1ccc2c(c1)C(=O)CC1(CN(C(=O)c3ccccc3)C1)O2)NO [Example 37, (E)-3-[1'-Benzoyl-4-oxo-spiro(chromane-2,3'-azetidine)-6-yl]-N-hydroxy-acrylamide] |
| ≥ 7.00 | ≥ 6.00 | ≥ 6.00 | ≥ 6.00 |  |  |  | Cn1cc(CN2CC3(CC(=O)c4cc(/C=C/C(=O)NO)ccc4O3)C2)c2ccccc21 [Example 44, (E)-3-[1'-(1-Methyl-1H-indol-3-ylmethyl)-4-oxo-spiro(chromane-2,3'-azetidine)-6-yl]-N-hydroxy-acrylamide] |
